Source: US10138253B2, “Imidazopyridine macrocycles as inhibitors of human immunodeficiency virus replication” (priority 2015, dated 2018)
Where two headings read alike, the source gives them in different places.

Legend:
[1] = ether bond, 20-membered ring, PPh3/DIAD, THF
[2] = ether bond, PPh3/DIAD, THF
NL-RLuc virus = experiment: Inhibition of HIV replication (NL-RLuc virus, luciferase readout, MT-2 cells); type: cell-based; conditions: Human immunodeficiency virus 1, MT2, 120 h
Text: Inhibition of HIV Replication:
A recombinant NL-RLuc proviral clone was constructed in which a section of the nef gene from NL4-3 was replaced with the Renilla Luciferase gene. This virus is fully infectious and can undergo multiple cycles of replication in cell culture. In addition, the luciferous reporter provides a simple and easy method for quantitating the extent of virus growth and consequently, the antiviral activity of test compounds. The plasmid pNLRLuc contains the proviral NL-Rluc DNA cloned into pUC18 at the PvuII site. The NL-RLuc virus was prepared by transfection of 293T cells with the plasmid pNLRLuc. Transfections were performed using the LipofectAMINE PLUS kit from Invitrogen (Carlsbad, Calif.) according to the manufacturer and the virus generated was titered in MT-2 cells. For susceptibility analyses, the titrated virus was used to infect MT-2 cells in the presence of compound, and after 5 days of incubation, cells were processed and quantitated for virus growth by the amount of expressed luciferase. Assay media was RPMI 1640 supplemented with 10% heat inactivated fetal bovine serum (FBS), 100 units/ml penicillin G/100 units/ml streptomycin, 10 mM HEPES buffer pH 7.55 and 2 mM L-glutamine. The results from at least 2 experiments were used to calculate the EC50 values. Luciferase was quantitated using the Dual Luciferase kit from Promega (Madison, Wis.). Susceptibility of viruses to compounds was determined by incubation in the presence of serial dilutions of the compound. The 50% effective concentration (EC50) was calculated by using the exponential form of the median effect equation where (Fa)=1/[1+(ED50/drug conc.)^m] (Johnson V A, Byington R T. Infectivity Assay. In Techniques in HIV Research. ed. Aldovini A, Walker B D. 71-76. New York: Stockton Press. 1990). Activity equal to A refers to a compound having an EC50≤100 nM, while B and C denote compounds having an EC50 between 100 nM and luM (B) or >1 uM (C).

[3] = from COC(=O)[C@@H](OC(C)(C)C)c1c(C)c(C)c2nc(-c3cccc(-c4cc(F)c(F)cc4O)c3)c(C)n2c1N1CCC(C)(OCCOC[C@@H](C)O)CC1, 2.77 mM, 1.0 h, 2 steps
[4] = from COC(=O)[C@@H](OC(C)(C)C)c1c(C)c(C)c2nc(-c3cccc(-c4c(O)cc(C)cc4F)c3)cn2c1N1CCC(C)(OCCOC[C@@H](C)O)CC1, 6.7 mM, 1.0 h, 2 steps
[5] = from COC(=O)[C@@H](OC(C)(C)C)c1c(C)c(C)c2nc(-c3cccc(-c4cc(C)ccc4O)c3)cn2c1N1CCC(C)(OCCOC[C@@H](C)O)CC1, 3.49 mM, 25.0 °C, 16.0 h
[6] = from COC(=O)[C@@H](OC(C)(C)C)c1c(C)c(C)c2nc(-c3cccc(-c4cc(F)ccc4O)c3)cn2c1N1CCC(C)(OCCOC[C@@H](C)O)CC1, 47.0 mM, 18.0 h

SMILES | EC50 (NL-RLuc virus; read-out: Activity) [µM] | other results
COC(=O)[C@@H](OC(C)(C)C)c1c(C)c(C)c2nc3c(C)n2c1N1CCC(C)(CC1)OCCOC[C@H](C)Oc1cc(F)c(F)cc1-c1cccc-3c1 |  | ring closure, isolated yield [1, 3]: 30%; ring closure, yield of all isomers [2, 3]: 30%
COC(=O)[C@@H](OC(C)(C)C)c1c(C)c(C)c2nc3cn2c1N1CCC(C)(CC1)OCCOC[C@H](C)Oc1cc(C)cc(F)c1-c1cccc-3c1 |  | ring closure, isolated yield [1, 4]: 81%; ring closure, yield of all isomers [2, 4]: 81%
COC(=O)[C@@H](OC(C)(C)C)c1c(C)c(C)c2nc3cn2c1N1CCC(C)(CC1)OCCOC[C@H](C)Oc1ccc(C)cc1-c1cccc-3c1 |  | ring closure, isolated yield [1, 5]: 60%; ring closure, yield of all isomers [2, 5]: 60%
COC(=O)[C@@H](OC(C)(C)C)c1c(C)c(C)c2nc3cn2c1N1CCC(C)(CC1)OCCOC[C@H](C)Oc1ccc(F)cc1-c1cccc-3c1 |  | ring closure, isolated yield [1, 6]: 59%; ring closure, yield of all isomers [2, 6]: 59%
Cc1c([C@H](OC(C)(C)C)C(=O)O)c2n3cc(nc3c1C#N)-c1cccc(c1)-c1cc(F)c(F)cc1O[C@@H](C)COCCOC1(C)CCN2CC1 [Example 17, (2S)-2-(tert-Butoxy)-2-[(22S)-5-cyano-17,18-difluoro-4,22,28-trimethyl-21,24,27-trioxa-1,7,34-triazahexacyclo[26.2.2.1^6,^9.1^1^0,^1^4.0^2,^7.0^1^5,^2^0]tetratriaconta-2,4,6(34),8,10(33),11,13,15(20),16,18-decaen3-yl]acetic Acid] | < 0.1 | 
Cc1cc(F)c2c(c1)O[C@@H](C)COCCOC1(C)CCN(CC1)c1c([C@H](OC(C)(C)C)C(=O)O)c(C)cc3nc(cn13)-c1cccc-2c1 [Example 18, (2S)-2-(tert-Butoxy)-2-[(22S)-16-fluoro-4,18,22,28-tetramethyl-21,24,27-trioxa-1,7,34-triazahexacyclo[26.2.2.1^6,^9.1^1^0,^1^4.0^2,^7.0^1^5,^2^0]tetratriaconta-2,4,6(34),8,10(33),11,13,15(20),16,18-decaen-3-yl]acetic Acid] | < 0.1 | 
Cc1cc(F)c2c(c1)O[C@@H](C)COCCOC1(C)CCN(CC1)c1c([C@H](OC(C)(C)C)C(=O)O)c(C)c(C)c3nc(cn13)-c1cccc-2c1 [Example 19, (2S)-2-(tert-Butoxy)-2-((6S,Z)-46-fluoro-14,27,28,44,6-pentamethyl-5,8,11-trioxa-2(5,2)-imidazo[1,2-a]pyridina-1(1,4)-piperidina-3(1,3),4(1,2)-dibenzenacycloundecaphane-26-yl)acetic Acid] | < 0.1 | 
Cc1cc(F)c2c(c1)O[C@@H](C)COCCOC1(C)CCN(CC1)c1c([C@H](OC(C)(C)C)C(=O)O)c(C)c(C)c3nc(c(Cl)n13)-c1cccc-2c1 [Example 21, (2S)-2-(tert-Butoxy)-2-((6S,E)-23-chloro-46-fluoro-14,27,28,44,6-pentamethyl-5,8,11-trioxa-2(5,2)-imidazo[1,2-a]pyridina-1(1,4)-piperidina-3(1,3),4(1,2)-dibenzenacycloundecaphane-26-yl)acetic acid] | < 0.1 | EC50 (NL-RLuc virus; read-out: EC50 μM): 0.002 µM
Cc1ccc2c(c1)O[C@@H](C)COCCOC1(C)CCN(CC1)c1c([C@H](OC(C)(C)C)C(=O)O)c(C)cc3nc(cn13)-c1cccc-2c1 [Example 22, (2S)-2-(tert-Butoxy)-2-[(22S)-4,18,22,28-tetramethyl-21,24,27-trioxa-1,7,34-triazahexacyclo[26.2.2.1^6,^9.1^1^0,^1^4.0^2,^7.0^1^5,^2^0]tetratriaconta-2,4,6(34),8,10(33),11,13,15(20),16,18-decaen-3-yl]acetic Acid] | < 0.1 | 
Cc1ccc2c(c1)O[C@@H](C)COCCOC1(C)CCN(CC1)c1c([C@H](OC(C)(C)C)C(=O)O)c(C)c(C)c3nc(cn13)-c1cccc-2c1 [Example 23, (2S)-2-(tert-Butoxy)-2-((6S,Z)-14,27,28,44,6-pentamethyl-5,8,11-trioxa-2(5,2)-imidazo[1,2-a]pyridina-1(1,4)-piperidina-3(1,3),4(1,2)-dibenzenacycloundecaphane-26-yl)acetic Acid] | < 0.1 | 
Cc1ccc2c(c1)O[C@@H](C)COCCOC1(C)CCN(CC1)c1c([C@H](OC(C)(C)C)C(=O)O)c(C)c(C)c3nc(c(Cl)n13)-c1cccc-2c1 [Example 24, (2S)-2-(tert-Butoxy)-2-((6S,E)-23-chloro-14,27,28,44,6-pentamethyl-5,8,11-trioxa-2(5,2)-imidazo[1,2-a]pyridina-1(1,4)-piperidina-3(1,3),4(1,2)-dibenzenacycloundecaphane-26-yl)acetic Acid] | < 0.1 | 
Cc1ccc2c(c1)-c1cccc(c1)-c1cn3c(c([C@H](OC(C)(C)C)C(=O)O)c(C)cc3n1)N1CCC(C)(CC1)OCCOC[C@H](C)O2 [Example 25, (2S)-2-(tert-Butoxy)-2-[(22S)-4,17,22,28-tetramethyl-21,24,27-trioxa-1,7,34-triazahexacyclo[26.2.2.1^6,^9.1^1^0,^1^4.0^2,^7.0^1^5,^2^0]tetratriaconta-2,4,6(34),8,10(33),11,13,15(20),16,18-decaen-3-yl]acetic acid] | < 0.1 | EC50 (NL-RLuc virus; read-out: EC50 μM): 0.002 µM
Cc1ccc2c(c1)-c1cccc(c1)-c1cn3c(c([C@H](OC(C)(C)C)C(=O)O)c(C)c(C)c3n1)N1CCC(C)(CC1)OCCOC[C@H](C)O2 [Example 26, (2S)-2-(tert-Butoxy)-2-[(22S)-4,5,17,22,28-pentamethyl-21,24,27-trioxa-1,7,34-triazahexacyclo[26.2.2.1^6,^9.1^1^0,^1^4.0^2,^7.0^1^5,^2^0]tetratriaconta-2,4,6(34),8,10(33),11,13,15(20),16,18-decaen-3-yl]acetic Acid] | < 0.1 | 
Cc1ccc2c(c1)-c1cccc(c1)-c1nc3c(C)c(C)c([C@H](OC(C)(C)C)C(=O)O)c(n3c1Cl)N1CCC(C)(CC1)OCCOC[C@H](C)O2 [Example 27, (2S)-2-(tert-Butoxy)-2-[(22S)-8-chloro-4,5,17,22,28-pentamethyl-21,24,27-trioxa-1,7,34-triazahexacyclo[26.2.2.1^6,^9.1^1^0,^1^4.0^2,^7.0^1^5,^2^0]tetratriaconta-2,4,6(34),8,10(33),11,13,15(20),16,18-decaen-3-yl]acetic Acid] | < 0.1 | 
Cc1c([C@H](OC(C)(C)C)C(=O)O)c2n3cc(nc3c1C)-c1cccc(c1)-c1cc(F)ccc1O[C@@H](C)COCCOC1(C)CCN2CC1 [Example 28, (2S)-2-(tert-Butoxy)-2-((6S,Z)-45-fluoro-14,27,28,6-tetramethyl-5,8,11-trioxa-2(5,2)-imidazo[1,2-a]pyridina-1(1,4)-piperidina-3(1,3),4(1,2)-dibenzenacycloundecaphane-26-yl)acetic Acid] | < 0.1 | 
Cc1c([C@H](OC(C)(C)C)C(=O)O)c2n3c(Cl)c(nc3c1C)-c1cccc(c1)-c1cc(F)ccc1O[C@@H](C)COCCOC1(C)CCN2CC1 [Example 29, (2S)-2-(tert-butoxy)-2-((6S,E)-23-chloro-45-fluoro-14,27,28,6-tetramethyl-5,8,11-trioxa-2(5,2)-imidazo[1,2-a]pyridina-1(1,4)-piperidina-3(1,3),4(1,2)-dibenzenacycloundecaphane-26-yl)acetic Acid] | < 0.1 | EC50 (NL-RLuc virus; read-out: EC50 μM): 0.001 µM
